PMC11046985 (Neuro-Oncology Advances, 2024)

How the values were obtained:
[1] = daily afatinib, recurrent glioblastoma; read-out: Cmax in plasma; cited from earlier work
[2] = cited from earlier work
[3] = parameters: species or system human; details: in vivo
From the text: The opening of a new cohort followed a standard 3 + 3 dose-escalation design and was guided by assessment of all grade toxicities and trends in adverse events seen in subsequent dosing cycles. […] Safety and clinical data were reviewed through day 28 prior to the opening of each cohort level. DLT was defined as any possible drug-related, clinically relevant, grade 3 or 4 non-hematologic toxicity (except alopecia or unmedicated nausea/vomiting), grade 3 nausea, vomiting, or diarrhea of any duration lasting > 24 hours despite standard prophylaxis and/or treatment, grade 4 diarrhea and vomiting of any duration, grade 3 febrile neutropenia (defined as ANC […] with a single temperature of > 38.3° C or a sustained temperature of ≥ 38.3° C for more than 1 hour), grade 4 febrile neutropenia of any duration, grade 4 neutropenia lasting > 7 days (defined as a neutrophil count of < 500/mm^3), grade 4 thrombocytopenia or thrombocytopenia with clinically significant bleeding, grade 4 anemia of any duration, and any clinically significant toxicity that precluded administration of the next scheduled dose beyond 14 days, or dose reduction for any reason. The maximum tolerated dose (MTD) was defined as the highest dose tested in which fewer than 33% of patients experienced a DLT. Review of study data led to expansion of dose cohort 3 while dose cohort 4 was evaluated. Dose cohort 4 was also expanded in the absence of DLTs. The recommended phase II dose was defined as a dose equal to or below the MTD and accounted for any cumulative or delayed toxicity beyond the DLT observation period.
Safety evaluations of hematology and chemistry were conducted weekly on days 1, 8, and 15 in cycles 1 and 2 and every 2 weeks thereafter. Physical examination, vital signs collection, performance status assessment, neurological exam, and coagulation level occurred at the start of every cycle. An ECG and chest X-ray were performed at baseline prior to starting treatment. Toxicities were assessed using NCI CTCAE version 4.03.

Structure (SMILES): CN(C)C/C=C/C(=O)Nc1cc2c(Nc3ccc(F)c(Cl)c3)ncnc2cc1O[C@H]1CCOC1 [Afatinib]
- Cmax [1]: ~24 nM
- Median concentration of afatinib in CSF ([2]; afatinib 40 mg daily, 11 patients, leptomeningeal metastases from NSCLC, steady-state day 8): 2.9 nM
- Afatinib concentration in the CSF ([2]; daily afatinib, case of leptomeningeal carcinomatosis): 0.05 nM
- Acute kidney injury: % of patients with treatment-related AE ([3]; human): 4.2%
- Acute kidney injury: No. of patients with treatment-related AE ([3]; human): 1
- Amnesia: % of patients with treatment-related AE ([3]; human): 4.2%
- Amnesia: No. of patients with treatment-related AE ([3]; human): 1
- Anorexia: % of patients with treatment-related AE ([3]; human): 25%
- Anorexia: No. of patients with treatment-related AE ([3]; human): 6
- Bilateral blepharitis: % of patients with treatment-related AE ([3]; human): 4.2%
- Bilateral blepharitis: No. of patients with treatment-related AE ([3]; human): 1
- Bilateral intermittent leg cramps: % of patients with treatment-related AE ([3]; human): 4.2%
- Bilateral intermittent leg cramps: No. of patients with treatment-related AE ([3]; human): 1
- Blurred vision: % of patients with treatment-related AE ([3]; human): 4.2%
- Blurred vision: No. of patients with treatment-related AE ([3]; human): 1
- Candida Intertrigo: % of patients with treatment-related AE ([3]; human): 4.2%
- Candida Intertrigo: No. of patients with treatment-related AE ([3]; human): 1
- Confusion: % of patients with treatment-related AE ([3]; human): 8.3%
- Confusion: No. of patients with treatment-related AE ([3]; human): 2
- Constipation: % of patients with treatment-related AE ([3]; human): 12.5%
- Constipation: No. of patients with treatment-related AE ([3]; human): 3
- DVT: % of patients with treatment-related AE ([3]; human): 4.2%
- DVT: No. of patients with treatment-related AE ([3]; human): 1
- Diarrhea: % of patients with treatment-related AE ([3]; human): 75%
- Diarrhea: No. of patients with treatment-related AE ([3]; human): 18
- Dysgeusia: % of patients with treatment-related AE ([3]; human): 4.2%
- Dysgeusia: No. of patients with treatment-related AE ([3]; human): 1
- Dyspepsia: % of patients with treatment-related AE ([3]; human): 4.2%
- Dyspepsia: No. of patients with treatment-related AE ([3]; human): 1
- Dyspnea: % of patients with treatment-related AE ([3]; human): 4.2%
- Dyspnea: No. of patients with treatment-related AE ([3]; human): 1
- Edema limbs: % of patients with treatment-related AE ([3]; human): 16.7%
- Edema limbs: No. of patients with treatment-related AE ([3]; human): 4
- Fatigue: % of patients with treatment-related AE ([3]; human): 25%
- Fatigue: No. of patients with treatment-related AE ([3]; human): 6
- Fever: % of patients with treatment-related AE ([3]; human): 8.3%
- Fever: No. of patients with treatment-related AE ([3]; human): 2
- GERD: % of patients with treatment-related AE ([3]; human): 4.2%
- GERD: No. of patients with treatment-related AE ([3]; human): 1
- Gait disturbance: % of patients with treatment-related AE ([3]; human): 4.2%
- Gait disturbance: No. of patients with treatment-related AE ([3]; human): 1
- Gastroenteritis: % of patients with treatment-related AE ([3]; human): 4.2%
- Gastroenteritis: No. of patients with treatment-related AE ([3]; human): 1
- Headache: % of patients with treatment-related AE ([3]; human): 4.2%
- Headache: No. of patients with treatment-related AE ([3]; human): 1
- Hypokalemia: % of patients with treatment-related AE ([3]; human): 4.2%
- Hypokalemia: No. of patients with treatment-related AE ([3]; human): 1
- Ingrown nail: % of patients with treatment-related AE ([3]; human): 4.2%
- Ingrown nail: No. of patients with treatment-related AE ([3]; human): 1
- Insomnia: % of patients with treatment-related AE ([3]; human): 4.2%
- Insomnia: No. of patients with treatment-related AE ([3]; human): 1
- Memory impairment: % of patients with treatment-related AE ([3]; human): 4.2%
- Memory impairment: No. of patients with treatment-related AE ([3]; human): 1
- Metabolic acidosis: % of patients with treatment-related AE ([3]; human): 4.2%
- Metabolic acidosis: No. of patients with treatment-related AE ([3]; human): 1
- Metabolic encephalopathy: % of patients with treatment-related AE ([3]; human): 4.2%
- Metabolic encephalopathy: No. of patients with treatment-related AE ([3]; human): 1
- Nausea: % of patients with treatment-related AE ([3]; human): 37.5%
- Nausea: No. of patients with treatment-related AE ([3]; human): 9
- Palmar-Plantar Erythrodysesthesia: % of patients with treatment-related AE ([3]; human): 4.2%
- Palmar-Plantar Erythrodysesthesia: No. of patients with treatment-related AE ([3]; human): 1
- Paresthesia (lower extremities): % of patients with treatment-related AE ([3]; human): 4.2%
- Paresthesia (lower extremities): No. of patients with treatment-related AE ([3]; human): 1
- Pruritus: % of patients with treatment-related AE ([3]; human): 16.7%
- Pruritus: No. of patients with treatment-related AE ([3]; human): 4
- Rash acneiform: % of patients with treatment-related AE ([3]; human): 37.5%
- Rash acneiform: No. of patients with treatment-related AE ([3]; human): 9
- Rash maculo-papular: % of patients with treatment-related AE ([3]; human): 20.8%
- Rash maculo-papular: No. of patients with treatment-related AE ([3]; human): 6
- Rash: % of patients with treatment-related AE ([3]; human): 25%
- Rash: No. of patients with treatment-related AE ([3]; human): 6
- Skin atrophy: % of patients with treatment-related AE ([3]; human): 4.2%
- Skin atrophy: No. of patients with treatment-related AE ([3]; human): 1
- Skin ulceration: % of patients with treatment-related AE ([3]; human): 4.2%
- Skin ulceration: No. of patients with treatment-related AE ([3]; human): 1
- Thrombocytopenia: % of patients with treatment-related AE ([3]; human): 4.2%
- Thrombocytopenia: No. of patients with treatment-related AE ([3]; human): 1
- Vomiting: % of patients with treatment-related AE ([3]; human): 37.5%
- Vomiting: No. of patients with treatment-related AE ([3]; human): 9
- Mucositis oral: % of patients with treatment-related AE ([3]; human, po): 20.8%
- Mucositis oral: No. of patients with treatment-related AE ([3]; human, po): 5
- Recommended phase II dose ([3]; human, po): 280 mg
- Thrush (oral): % of patients with treatment-related AE ([3]; human, po): 4.2%
- Thrush (oral): No. of patients with treatment-related AE ([3]; human, po): 1
- Dose-limiting toxicities [3]: no dose-limiting toxicities
